These results are taken from patent US20120288712A1, “ESCITALOPRAM AND SOLID PHARMACEUTICAL COMPOSITION COMPRISING THE SAME” (ratiopharm GmbH, priority 2006, published 2012).

Counter-ions that a name gives are not always drawn.

The nature of the series: Particle size distribution by laser diffraction (Sympatec Helos). It counts as physicochemical. To be noted: laser diffraction at 1 bar dispersive pressure. An excerpt: As used herein, “particle size distribution” means the cumulative volume size distribution of equivalent spherical diameters as determined by laser diffraction at 1 bar dispersive pressure in a Sympatec Helos equipment. “Median particle size”, correspondingly, means the median of said particle size distribution. When the term “Escitalopram” is used it covers Escitalopram as well as a pharmaceutically acceptable salt and/or a pharmaceutically acceptable solvate thereof.

Turning to `CN(C)CCC[C@@]1(c2ccc(F)cc2)OCc2cc(C#N)ccc21` [Escitalopram oxalate, (S)-1-[3-(dimethylamino)propyl]-1-(4-fluorophenyl)-1,3-dihydro-5-isobenzofurancarbonitrile], the median particle size result is reported as “about 6.65 μm”; the “ratio between the median particle size and the particle size at the 95% quantile” value is “about 0.61”.
